Results as given in patent publication EP0399422A1, “Benzocycloalkane derivatives and production thereof” (Takeda Chemical Industries, Ltd., priority 1989, dated 1990).

These molecules were tested on Acyl-CoA:cholesterol acyl transferase (ACAT) (assay: Acyl-CoA:cholesterol acyl transferase (ACAT) inhibiting activity). Conditions: inhibition of labeled cholesterol ester formation at 10⁻⁶ M of the test compounds; small intestine mucosa microsome fraction.
Type: biochemical, male Sprague-Dawley rats
Parameters: tested at 1 µM
Protocol: An ACAT enzyme preparation was obtained from the small intestine mucosa microsome fraction from male Sprague-Dawley rats of 6 weeks of age fasted for 20 hours, as described by Heider et al. [Journal of Lipid Research, 24, 1127 (1982)].
The ACAT activity was calculated by determining the yield of a labeled cholesterol ester from [1-¹⁴C]oleoyl-CoA and endogenous cholesterol using the method of Helgerud et al. [Journal of Lipid Research, 22, 271 (1981)].
The inhibition percentages of the labeled cholesterol ester formation at 10⁻⁶ M of the test compounds are shown in Table 1 as ACAT inhibiting activity indices.
For `O=C(Nc1ccc(F)cc1F)N(Cc1ccccc1)C1Cc2ccccc2C1` [Example 2, N-Benzyl-N′-(2,4-difluorophenyl)-N-(2-indanyl)urea], the “% ACAT inhibition” value was 65%. In the case of `O=C(Nc1ccc(F)cc1F)N(Cc1ccc(Cl)cc1)C1Cc2ccccc2C1` [Example 5, N-(4-Chlorobenzyl)-N′-(2,4-difluorophenyl)-N-(2-indanyl)urea], the “% ACAT inhibition” value is reported as 76%. For `CC(c1ccccc1)N(C(=O)Nc1ccc(F)cc1F)C1Cc2ccccc2C1` (stereo not drawn) [Example 6, N-(2,4-Difluorophenyl)-N′-(2-indanyl)-N′-(1-phenylethyl)urea], the “% ACAT inhibition” value was 80%. `CCC(c1ccccc1)N(C(=O)Nc1ccc(F)cc1F)C1Cc2ccccc2C1` (stereo not drawn) [Example 7, N-(2,4-Difluorophenyl)-N′-(2-indanyl)-N′-(1-phenylpropyl)urea] was tested, and the “% ACAT inhibition” value was 72%. With `O=C(Nc1ccc(F)cc1F)N(C1Cc2ccccc2C1)C(c1ccccc1)c1ccccc1` [Example 9, N-(2,4-Difluorophenyl)-N′-(2-indanyl)-N′-diphenyl methylurea] the “% ACAT inhibition” value was 53%. In the case of `Cc1ccccc1CN(C(=O)Nc1ccc(F)cc1F)C1Cc2ccccc2C1` [Example 10, N-(2,4-Difluorophenyl)-N′-(2-indanyl)-N′-(2-methylbenzyl)urea], the “% ACAT inhibition” value is reported as 72%. `Cc1cccc(CN(C(=O)Nc2ccc(F)cc2F)C2Cc3ccccc3C2)c1` [Example 11, N-(2,4-Difluorophenyl)-N′-(2-indanyl)-N′-(3-methylbenzyl)urea] was tested, and the “% ACAT inhibition” value was 64%. For `Cc1ccc(CN(C(=O)Nc2ccc(F)cc2F)C2Cc3ccccc3C2)cc1` [Example 12, N-(2,4-Difluorophenyl)-N′-(2-indanyl)-N′-(4-methylbenzyl)urea], the “% ACAT inhibition” value was 77%. `CC(C)c1ccc(CN(C(=O)Nc2ccc(F)cc2F)C2Cc3ccccc3C2)cc1` [Example 13, N-(4-Isopropylbenzyl)-N′-(2,4-difluorophenyl)-N-(2-indanyl)urea] was tested, and the “% ACAT inhibition” value was 86%. For `Cc1ccc(CN(C(=O)Nc2ccc(F)cc2F)C2Cc3ccccc3C2)c(C)c1` [Example 15, N-(2,4-Difluorophenyl)-N′-(2-indanyl)-N′-(2,4-dimethylbenzyl)urea], the “% ACAT inhibition” value was 88%. `Cc1ccc(C)c(CN(C(=O)Nc2ccc(F)cc2F)C2Cc3ccccc3C2)c1` [Example 16, N-(2,4-Difluorophenyl)-N′-(2-indanyl)-N′-(2,5-dimethylbenzyl)urea] was tested, and the “% ACAT inhibition” value was 86%. With `Cc1cc(C)c(CN(C(=O)Nc2ccc(F)cc2F)C2Cc3ccccc3C2)c(C)c1` [Example 17, N-(2,4-Difluorophenyl)-N′-(2-indanyl)-N′-(2,4,6-trimethylbenzyl)urea] the “% ACAT inhibition” value was 75%. For `COc1ccccc1CN(C(=O)Nc1ccc(F)cc1F)C1Cc2ccccc2C1` [Example 19, N-(2,4-Difluorophenyl)-N′-(2-indanyl)-N′-(2-methoxybenzyl)urea], the “% ACAT inhibition” value was 55%. `COc1ccc(CN(C(=O)Nc2ccc(F)cc2F)C2Cc3ccccc3C2)c(OC)c1` [Example 20, N-(2,4-Difluorophenyl)-N′-(2-indanyl)-N′-(2,4-dimethoxybenzyl)urea] was tested, and the “% ACAT inhibition” value was 72%. For `COc1cc(CN(C(=O)Nc2ccc(F)cc2F)C2Cc3ccccc3C2)cc(OC)c1OC` [Example 22, N-(2,4-Difluorophenyl)-N′-(2-indanyl)-N′-(3,4,5-trimethoxybenzyl)urea], the “% ACAT inhibition” value was 55%. `O=C(Nc1ccc(F)cc1F)N(Cc1cccs1)C1Cc2ccccc2C1` [Example 23, N-(2,4-Difluorophenyl)-N′-(2-indanyl)-N′-(2-thienylmethyl)urea] was tested, and the “% ACAT inhibition” value was 57%. In the case of `O=C(Nc1ccc(F)cc1F)N(CC1CCCCC1)C1Cc2ccccc2C1` [Example 26, N-Cyclohexylmethyl-N′-(2,4-difluorophenyl)-N-(2-indanyl)urea], the “% ACAT inhibition” value is reported as 60%. `Cc1cc(C)c2c(c1)CC(N(Cc1ccccc1)C(=O)Nc1ccc(F)cc1F)C2` (stereo not drawn) [Example 27, N-Benzyl-N′-(2,4-difluorophenyl)-N-(4,6-dimethyl-2-indanyl)urea] was tested, and the “% ACAT inhibition” value was 58%. For `COc1ccc(OC)c2c1CC(N(Cc1ccccc1)C(=O)Nc1ccc(F)cc1F)C2` [Example 28, N-Benzyl-N′-(2,4-difluorophenyl)-N-(4,7-dimethoxy-2-indanyl)urea], the “% ACAT inhibition” value was 56%. In the case of `COc1cc(CN(C(=O)Nc2ccc(F)cc2F)C2Cc3ccccc3C2)ccc1O` [Example 33, N-(2,4-Difluorophenyl)-N′-(4-hydroxy-3-methoxybenzyl)-N′-(2-indanyl)urea], the “% ACAT inhibition” value is reported as 57%. `COc1cc(CN(C(=O)Nc2ccc(F)cc2F)C2Cc3ccccc3C2)c(OC)c(C)c1C` [Example 35, N-(2,4-Difluorophenyl)-N′-(2-indanyl)-N′-(2,5-dimethoxy-3,4-dimethylbenzyl)urea] was tested, and the “% ACAT inhibition” value was 58%. With `COc1cc(C)c(CN(C(=O)Nc2ccc(F)cc2F)C2Cc3ccccc3C2)cc1C` [Example 36, N-(2,4-Difluorophenyl)-N′-(2-indanyl)-N′-(4-methoxy-2,5-dimethylbenzyl)urea] the “% ACAT inhibition” value was 72%. For `Cc1cc(CN(C(=O)Nc2ccc(F)cc2F)C2Cc3ccccc3C2)c(C)cc1O` [Example 37, N-(2,4-Difluorophenyl)-N′-(4-hydroxy-2,5-dimethylbenzyl)-N′-(2-indanyl)urea], the “% ACAT inhibition” value was 93%. For `Cc1cc(CN(C(=O)Nc2ccc(F)cc2F)C2Cc3ccccc3C2)c(C)c(C)c1O` [Example 39, N-(2,4-Difluorophenyl)-N′-(4-hydroxy-2,3,5-trimethylbenzyl)-N′-(2-indanyl)urea], the “% ACAT inhibition” value was 89%. `CC(C)c1cc(CN(C(=O)Nc2ccc(F)cc2F)C2Cc3ccccc3C2)cc(C(C)C)c1O` [Example 40, N-(2,4-Difluorophenyl)-N′-(4-hydroxy-3,5-diisopropylbenzyl)-N′-(2-indanyl)urea] was tested, and the “% ACAT inhibition” value was 83%. With `Cc1cc(O)c(C(C)(C)C)cc1CN(C(=O)Nc1ccc(F)cc1F)C1Cc2ccccc2C1` [Example 41, N-(5-tert-Butyl-4-hydroxy-2-methylbenzyl)-N′-(2,4-difluorophenyl)-N-(2-indanyl)urea] the “% ACAT inhibition” value was 95%. `CC(C)(C)c1cc(CN(C(=O)Nc2ccc(F)cc2F)C2Cc3ccccc3C2)cc(C(C)(C)C)c1O` [Example 42, N-(3,5-Di-tert-butyl-4-hydroxybenzyl)-N′-(2,4-difluorophenyl)-N-(2-indanyl)urea] was tested, and the “% ACAT inhibition” value was 62%. With `O=C(Nc1ccc(F)cc1F)N(Cc1ccccc1)C1CCc2ccccc2C1` (stereo not drawn) [Example 44, N-Benzyl-N′-(2,4-difluorophenyl)-N-(1,2,3,4-tetrahydro-2-naphthyl)urea] the “% ACAT inhibition” value was 63%. `Cc1cc(O)c(C(C)C)cc1CN(C(=O)Nc1ccc(F)cc1F)C1Cc2ccccc2C1` [Example 45, N-(2,4-Difluorophenyl)-N′-(4-hydroxy-5-isopropyl-2-methylbenzyl)-N′-(2-indanyl)urea] was tested, and the “% ACAT inhibition” value was 96%. `Cc1cc(CN(C(=O)Nc2ccc(F)cc2F)C2Cc3ccccc3C2)c(C(C)C)cc1O` [Example 46, N-(2,4-Difluorophenyl)-N′-(4-hydroxy-2-isopropyl-5-methylbenzyl)-N′-(2-indanyl)urea] was tested, and the “% ACAT inhibition” value was 77%. In the case of `O=C(Nc1ccc(F)cc1F)N(Cc1ccccc1)C1CCCc2ccccc2C1` (stereo not drawn) [Example 49, N-Benzyl-N′-(2,4-difluorophenyl)-N-(6,7,8,9-tetrahydro-5H-6-benzocycloheptenyl)urea], the “% ACAT inhibition” value is reported as 89%. `Cc1cc(O)c(C(C)(C)C)cc1CN(C(=O)Nc1ccc(F)cc1F)C1CCCc2ccccc2C1` (stereo not drawn) [Example 50, N-(5-tert-Butyl-4-hydroxy-2-methylbenzyl)-N′-(2,4-difluorophenyl)-N-(6,7,8,9-tetrahydro-5H-6-benzocycloheptenyl)urea] was tested, and the “% ACAT inhibition” value was 85%. In the case of `Cc1ccc(C)c(CN(C(=O)Nc2ccc(F)cc2F)C2CCCc3ccccc3C2)c1` (stereo not drawn) [Example 56, N-(2,4-Difluorophenyl)-N′-(6,7,8,9-tetrahydro-5H-6-benzocycloheptenyl)-N′-(2,5-dimethylbenzyl)urea], the “% ACAT inhibition” value is reported as 79%. For `O=C(Nc1ccc(F)cc1F)N(Cc1ccccc1)C1CCc2ccccc21` (stereo not drawn) [Example 57, N-Benzyl-N′-(2,4-difluorophenyl)-N-(1-indanyl)urea], the “% ACAT inhibition” value was 84%. In the case of `O=C(Nc1ccc(F)cc1F)N(Cc1ccccc1)C1CCCc2ccccc21` (stereo not drawn) [Example 58, N-Benzyl-N′-(2,4-difluorophenyl)-N-(1,2,3,4-tetrahydro-1-naphthyl)urea], the “% ACAT inhibition” value is reported as 94%. With `O=C(Nc1ccc(F)cc1F)N(Cc1ccccc1)C1CCCCc2ccccc21` (stereo not drawn) [Example 59, N-Benzyl-N′-(2,4-difluorophenyl)-N-(6,7,8,9-tetrahydro-5H-5-benzocycloheptenyl)urea] the “% ACAT inhibition” value was 80%. With `COc1cc(CN(C(=O)Nc2ccc(F)cc2F)C2CCc3ccccc32)cc(OC)c1O` (stereo not drawn) [Example 60, N-(2,4-Difluorophenyl)-N′-(4-hydroxy-3,5-dimethoxybenzyl)-N′-(1-indanyl)urea] the “% ACAT inhibition” value was 83%. `COc1cc(CN(C(=O)Nc2ccc(F)cc2F)C2CCCc3ccccc32)cc(OC)c1O` (stereo not drawn) [Example 61, N-(2,4-Difluorophenyl)-N′-(4-hydroxy-3,5-dimethoxybenzyl)-N′-(1,2,3,4-tetrahydro-1-naphthyl)urea] was tested, and the “% ACAT inhibition” value was 53%. For `COc1cc(CN(C(=O)Nc2ccc(F)cc2F)C2CCCCc3ccccc32)cc(OC)c1O` (stereo not drawn) [Example 62, N-(2,4-Difluorophenyl)-N′-(6,7,8,9-tetrahydro-5H-5-benzocycloheptenyl)-N′-(4-hydroxy-3,5-dimethoxybenzyl)urea], the “% ACAT inhibition” value was 69%.
